# Reference: patent US20250041286A1, “CANCER TREATMENT USING KETOTIFEN IN COMBINATION WITH A CHECKPOINT INHIBITOR” (Materia Therapeutics Inc., priority 2021, published 2025)
# Entries after “also recorded” stand apart in the source; their conditions may differ.
# Tests used:
# K7M2wt tumors [1] = assay: Atomic force microscopy (AFM) elastic modulus of tumor samples ex vivo; type: in vivo, mouse; conditions: ketotifen-treated K7M2wt tumors, microscopic scale
# Method: Following the confirmation of the presence of MCs in human sarcoma samples and the in vitro characterization of the MC-fibroblast interaction, it was assessed whether inhibition of MC degranulation would reduce fibrosis in murine sarcoma models. The impact of MC degranulation by treating MCA205 fibrosarcoma and K7M2wt osteosarcoma tumors with ketotifen was assessed. Ketotifen was administered in four different doses (1, 5, 10, and 25 mg/kg), once a day by i.p. injection for a period of 8 days (as shown in FIG. 4A). […] The effect of ketotifen on tumor stiffness in vivo was monitored using shear wave elastography (SWE). SWE measurements were performed before, after 3 days (for MCA205) or 4 days (for K7M2wt) of ketotifen treatment and upon study completion. […] The pertinent reduction in tumor stiffness was further validated ex vivo at the microscopic tissue scale using atomic force microscopy (AFM) of tumor samples. […] In FIG. 19B, the left peak of lower elastic modulus corresponds to compliant cancer cells, while the tail of higher elastic modulus (dashed rectangles) represents the contribution of the stiffer matrix components, mainly collagen. Data are presented as mean±SE. Statistical analyses were performed by comparing means between two independent groups using the ordinary one-way ANOVA test.
# NIH3T3 cells = assay: Myofibroblast differentiation in co-culture, αSMA and collagen I immunofluorescence; type: cell-based, murine; conditions: co-culture with TGFβ and activated MCs
# Method: Given that both MCs and fibroblasts are present in the TME, the consequences of MC activation on myofibroblasts was explored using a co-culture assay in which murine MC/9 MCs and NIH3T3 myofibroblasts were separated by a transwell chamber with micropores that only allowed chemical communication (FIG. 13A). In this system, degranulation efficiency was determined by measuring the concentration of β-hexosaminidase (β-hex) in the supernatant. MC degranulation was induced through exposure to compound 48/80 (C48/80), which binds to the MRGPRB2 receptor (the orthologue of the human G-protein-coupled receptor MRGPRX2). […] Co-cultures treated with a vehicle control and Triton X-100 were used as internal assay control to evaluate background and maximum β-hex release, respectively. Transforming growth factor (TGF)-β1 was used as a fibroblast activator due to its capacity to induce a myofibroblast phenotype of the NIH3T3 cells. MC/9 cells were cultivated with NIH3T3 cells for 24 hours and then treated with either ketotifen or TGFβ for additional 24 hours in low serum medium, followed by a 30 minute sensitization with C48/80.
# To further explore the MC-fibroblast interaction, the differentiation process of NIH3T3 cells in the co-culture system was monitored by assaying levels of αSMA and collagen I, which are two markers of the myofibroblast phenotype, by immunofluorescence staining (FIG. 13C, FIG. 13D, and FIG. 13E).
# MCA205 tumors [2] = assay: Hypoxia study, pimonidazole adduct immunofluorescence; type: in vivo, mouse
# Method: Mice bearing orthotopic MCA205 or K7M2wt sarcoma tumors were injected (intraperitoneal) with 60 mg/kg of pimonidazole HCl at 2 hours prior to tumor removal. Tumors were removed, washed twice in 1×PBS for 10 minutes and incubated with 4% PFA overnight at 4° C. The fixative was aspirated, and samples were washed twice in 1×PBS for 10 min. Tissue samples were dehydrated in successive ethanol steps and xylene followed by paraffin embedding. Serial sections ([…]) of paraffin-embedded tissues were produced using the microtome (Accu-Cut SRM 200 Rotary Microtome, SAKURA), flattened out into water, and allowed to dry overnight at 37° C. Sections were then deparaffinized and rehydrated as routinely processed for histology. Slides were microwaved in TriSodium Citrate, blocked in serum solution, and incubated with mouse anti-pimonidazole RED 549 conjugate antibody (HP7-100Kit, 1:100) overnight at 4° C. The next day slides were washed, nuclei were stained with DAPI, and tissue sections were mounted. Immunofluorescence images of the slides were taken (FIG. 1A), and hypoxic area fraction across different treatment groups was normalized to DAPI staining.
# MCA205 tumors [3] = assay: Tumor growth (volume, mass) under daily ketotifen, fibrosarcoma model; type: in vivo, mouse; conditions: ketotifen 1, 5, 10 and 25 mg/kg i.p. once a day for 8 days
# Method: Two mouse models of distinct sarcoma subtypes, fibrosarcoma (MCA205 cells) and osteosarcoma (K7M2wt cells), were used in this study.
# MCA205, a mouse fibrosarcoma cell line (SCC173, Millipore), was cultured in RPMI-1640 expansion medium containing 2 mM L-glutamine, 1 mM sodium pyruvate, 10% fetal bovine serum, 1× non-essential amino acids (TMS-001-C, Sigma), 1% antibiotics (A5955, Sigma), and 1×β-mercaptoethanol. K7M2wt, a mouse osteosarcoma cell line (CRL2836™, ATCC®), was cultured in DMEM expansion medium supplemented with 10% FBS and 1% antibiotics. All cells were maintained at 37° C./5% CO2.
# A fibrosarcoma syngeneic tumor model was generated by subcutaneous implantation of 2.5×10^5 MCA205 cells in 50 μL of serum-free medium into the flank of 6-week old C57BL/6 female mice. A osteosarcoma syngeneic tumor model was generated by implanting K7M2wt tumor chunks into the fat pad of 6-week old BALB/c female mice. […]
# Each treatment group of 4-7 mice received subtherapeutic doses of ketotifen (1, 5, 10 and 25 mg/kg) for a period of 8 days. […] Planar dimensions (x, y) of tumor were monitored every 2-3 days using a digital caliper and tumor volume was estimated from the volume of an ellipsoid and assuming that the third dimension, z, is equal to sqrt(x y).
# K7M2wt tumors [4] = assay: Vascular and functional perfusion, contrast-enhanced ultrasound; type: in vivo, mouse; conditions: 10 mg/kg ketotifen, day 3 and day 7
# Method: (§1) Vascular perfusion and functional perfusion were measured simultaneously during the course of ketotifen treatment, at day 3 and day 7, using contrast-enhanced ultrasound in mice bearing MCA205 and mice bearing K7M2wt tumors. Tumor perfusion was assessed after bolus injection of 8 μl SonoVue/Lumason contrast agent (Bracco Diagnostics, Geneva, Switzerland). SonoVue contains sulphur hexafluoride microbubbles encapsulated with a phosphoilipid shell and having a mean diameter of 2.5 μm. It is delivered as a retro-orbital injection since tail vein microbubble injections tend to have high variability. Prior to each ultrasound application, mice were anesthetized by i.p. injection of Avertin (200 mg/kg).
# MCA205 tumors [5] = assay: as above; type: in vivo, mouse; conditions: 10 mg/kg ketotifen, day 3 and day 7
# Method: as §1
smiles,measurement,setting,value
CN1CCC(=C2c3ccccc3CC(=O)c3sccc32)CC1 [ketotifen],average value of elastic modulus by AFM,K7M2wt tumors [1],reduction
same,myofibroblast differentiation (αSMA and collagen I protein expression),NIH3T3 cells,impaired this myofibroblast differentiation
same,pimonidazole positive fraction (hypoxia),"MCA205 tumors [2]; 1 mg/kg, 5 mg/kg and 25 mg/kg ketotifen",prominent
same,pimonidazole positive fraction (hypoxia),"MCA205 tumors [2]; 10 mg/kg ketotifen, MCA205",significantly reduced; also recorded: alleviated hypoxia
same,antitumor effect (tumor volume and mass),MCA205 tumors [3],No subtherepautic dose of ketotifen exhibited an antitumor effect
same,vascular and functional perfusion,K7M2wt tumors [4],significant increase; also recorded: highly effective at increasing vessel perfusion
same,vascular and functional perfusion,MCA205 tumors [5],significant increase; also recorded: highly effective at increasing vessel perfusion
